Test results as given in patent US20240197891A1, “PHARMACEUTICAL COMPOSITIONS COMPRISING POH DERIVATIVES” (UNIVERSITY OF SOUTHERN CALIFORNIA, priority 2021, published 2024).

Columns and labels:
[1] = test system: A172 human glioma cells; experiment: MTT cytotoxicity assay, A172 cells; format: cell-based; conditions: Homo sapiens, A-172 cells, 48 hours
Excerpt: (§1) In vitro efficacy of the present composition can be determined using methods well known in the art. For example, the cytotoxicity of the present monoterpene (or sesquiterpene) and/or the therapeutic agents may be studied by MTT [3-(4,5-dimethylthiazol-2-yl)-2,5-diphenyl tetrazolium bromide] cytotoxicity assay. MTT assay is based on the principle of uptake of MTT, a tetrazolium salt, by metabolically active cells where it is metabolized into a blue colored formazan product, which can be read spectrometrically. J. of Immunological Methods 65: 55 63, 1983. The cytotoxicity of the present monoterpene (or sesquiterpene) derivative and/or the therapeutic agents may be studied by colony formation assay. Functional assays for inhibition of VEGF secretion and IL-8 secretion may be performed via ELISA. Cell cycle block by the present monoterpene (or sesquiterpene) derivative and/or the therapeutic agents may be studied by standard propidium iodide (PI) staining and flow cytometry. Invasion inhibition may be studied by Boyden chambers. In this assay a layer of reconstituted basement membrane, Matrigel, is coated onto chemotaxis filters and acts as a barrier to the migration of cells in the Boyden chambers. Only cells with invasive capacity can cross the Matrigel barrier. Other assays include, but are not limited to cell viability assays, apoptosis assays, and morphological assays. […]

[2] = test system: U251 human glioma cells; experiment: MTT cytotoxicity assay, U251 cells
Excerpt: (§2) In vitro efficacy of the present composition can be determined using methods well known in the art. For example, the cytotoxicity of the present monoterpene (or sesquiterpene) and/or the therapeutic agents may be studied by MTT [3-(4,5-dimethylthiazol-2-yl)-2,5-diphenyl tetrazolium bromide] cytotoxicity assay. MTT assay is based on the principle of uptake of MTT, a tetrazolium salt, by metabolically active cells where it is metabolized into a blue colored formazan product, which can be read spectrometrically. J. of Immunological Methods 65: 55 63, 1983. The cytotoxicity of the present monoterpene (or sesquiterpene) derivative and/or the therapeutic agents may be studied by colony formation assay. Functional assays for inhibition of VEGF secretion and IL-8 secretion may be performed via ELISA. Cell cycle block by the present monoterpene (or sesquiterpene) derivative and/or the therapeutic agents may be studied by standard propidium iodide (PI) staining and flow cytometry. Invasion inhibition may be studied by Boyden chambers. In this assay a layer of reconstituted basement membrane, Matrigel, is coated onto chemotaxis filters and acts as a barrier to the migration of cells in the Boyden chambers. Only cells with invasive capacity can cross the Matrigel barrier. Other assays include, but are not limited to cell viability assays, apoptosis assays, and morphological assays.
(§3) To compare the cytotoxicity of Rolipram POH Carbamate (POH-Rolipram) (e.g., synthesized by the method in Example 5) with rolipram, […] inducing differentiation and apoptosis in glioma cells, A172, U87, U251 and LN229 human glioma cells were treated with either POH-Rolipram or rolipram for 48 hours.
MTT cytotoxicity assays were carried out after cells were treated with the TMZ-POH conjugate. The MTT cytotoxicity assays were carried out as described in Chen T C, et al. Green tea epigallocatechin gallate enhances therapeutic efficacy of temozolomide in orthotopic mouse glioblastoma models. Cancer Lett. 2011 Mar. 28; 302(2):100-8.

[3] = test system: U87 human glioma cells; experiment: MTT cytotoxicity assay, U87 cells; format: cell-based; conditions: Homo sapiens, U-87 MG, U-87 cells, 48 hours
Excerpt: as §1

[4] = test system: LN229 human glioma cells; experiment: cells; conditions: Homo sapiens, LN-229, 48 h
Excerpt: as §2, §3

[5] = test system: USC-04 glioma cancer stem cells; experiment: MTT cytotoxicity assay, USC-04 glioma cancer stem cells; format: cell-based; conditions: USC-04; increasing concentrations (TMZ 0-400 uM; POH 0-2 mM)
Excerpt: (§4) Cancer Lett. 2011 Mar. 28; 302(2):100-8.

[6] = test system: USC-02 glioma cancer stem cells; experiment: MTT cytotoxicity assay, USC-02 glioma cancer stem cells; format: cell-based; conditions: USC-02; increasing concentrations (TMZ 0-400 uM; POH 0-2 mM)
Excerpt: as §4

[7] = test system: TMZ resistant (U251TR) U251 cells; experiment: Colony forming assay, TMZ resistant U251TR cells; format: cell-based, human
Procedure: (§5) Colony forming assays were carried out after cells were treated with TMZ alone, POH alone, and the TMZ-POH conjugate. […] Cancer Lett. 2011 Mar. 28; 302(2):100-8.

[8] = test system: TMZ sensitive (U251) cells; experiment: Colony forming assay, TMZ sensitive U251 cells; format: cell-based, human; conditions: TMZ sensitive U251 cells
Procedure: as §5

[9] = test system: human malignant glioma cells U87, A172 and U251; experiment: MTT cytotoxicity assays on U87, A172 and U251 cells (stated jointly); format: cell-based
Procedure: J. of Immunological Methods 65: 55 63, 1983. […] Invasion inhibition may be studied by Boyden chambers.
Then U87, A172 and U251 cells were treated with dimethyl celecoxib bisPOH carbamate (POH-DMC) (e.g., synthesized by the method in Example 1), and the MTT cytotoxicity assays performed (FIG. 2).
Then TMZ-resistant glioma cell lines U87, A172 and U251 cells were treated with temozolomide POH carbamate (POH-TMZ) (e.g., synthesized by the method in Example 3).

[10] = test system: IL-6; experiment: Serum IL-6 following UV exposure; format: in vivo, mouse
Procedure: SKH-1 hairless mice were treated with 10 mg/kg POH-LA conjugate freshly prepared daily. The POH-LA conjugate was formulated in glycerol:ethanol (90:10) while the control animals received the glycerol:ethanol vehicle only or the commercially available sunblock (Well & Good Sun Protection Wipes SPF 15). Additional test groups were treated with POH formulated in the glycerol:ethanol vehicle or linoleic acid formulated in the glycerol:ethanol vehicle. 50 μL of each formulation was placed on a area 1 cm^2 area that was exposed to the UV light. The mice were treated with their respective formulations after exposure to the UV light. In FIG. 22A, the mouse was treated with sunblock. In FIG. 22B, the mouse was treated with POH. In FIG. 22C, the mouse was treated with linoleic acid. In FIG. 22D, the mouse was treated with POH-LA conjugate. […] The POH-LA conjugate, POH or linoleic acid solutions were gently spread on the skin surface and allowed to air dry. The sunblock mouse was gently wiped on the exposure area with the sunblock towelette. This exposure and treatment went on for a maximum of 10 weeks. Throughout the experimental period the animals were photographed and weighed. At the end of the experimental period the mice were photographed and euthanized, followed by skin and blood collection. Blood was analyzed for markers of inflammation and DNA recovered from the exposed area of the skin and analyzed for markers of DNA damage.
(§6) Furthermore, blood samples were taken from each mouse 4 hours after the last cutaneous treatment. About 0.5 mL of blood was collected by cardiac puncture […]. Serum was aliquoted in Eppendorf tubes and store at −80° C. as preparation for cytokine analyses. […]
(§7) Mice were treated with 10 mg/kg POH-LA conjugate freshly prepared daily. […] Blood was analyzed for markers of inflammation and DNA recovered from the exposed area of the skin and analyzed for markers of DNA damage.

[11] = test system: TNF-α; experiment: Serum TNF-α following UV exposure; format: in vivo, mouse
Procedure: (§8) SKH-1 hairless mice were treated with 10 mg/kg POH-LA conjugate freshly prepared daily. The POH-LA conjugate was formulated in glycerol:ethanol (90:10) while the control animals received the glycerol:ethanol vehicle only or the commercially available sunblock (Well & Good Sun Protection Wipes SPF 15). Additional test groups were treated with POH formulated in the glycerol:ethanol vehicle or linoleic acid formulated in the glycerol:ethanol vehicle. 50 μL of each formulation was placed on a area 1 cm^2 area that was exposed to the UV light. The mice were treated with their respective formulations after exposure to the UV light. In FIG. 22A, the mouse was treated with sunblock. In FIG. 22B, the mouse was treated with POH. In FIG. 22C, the mouse was treated with linoleic acid. In FIG. 22D, the mouse was treated with POH-LA conjugate. In FIG. […]:ethanol vehicle only. The POH-LA conjugate, POH or linoleic acid solutions were gently spread on the skin surface and allowed to air dry. The sunblock mouse was gently wiped on the exposure area with the sunblock towelette. This exposure and treatment went on for a maximum of 10 weeks. Throughout the experimental period the animals were photographed and weighed. At the end of the experimental period the mice were photographed and euthanized, followed by skin and blood collection. Blood was analyzed for markers of inflammation and DNA recovered from the exposed area of the skin and analyzed for markers of DNA damage.
as §6, §7

[12] = test system: IL-1β; experiment: Serum IL-1β following UV exposure; format: in vivo, mouse
Procedure: as §8, §6, §7

[13] = test system: UV-B exposed skin; experiment: UV-B induced skin damage in SKH-1 hairless mice; format: in vivo, mouse; conditions: topical post exposure
Procedure: (§9) FIG. 23 illustrates the simulation of sunlight by irradiation with UVB lamps (310 nm). The irradiation was conducted in a phototoxicity testing chamber and fitted with a UV-B lamp providing with a spectral output of approximately 310 nm. The source of UVR was a short-wavelength UV lamp (VWR. Radnor, PA). The peak spectral output of this lamp was approximately 310 nm, with no energy detectable below 260 nm, approximately 0.6% between 260 and 280 nm (UV-C), 72.7% between 280 and 320 nm (UV-B), and 26.7% between 320 and 400 nm (UV-A). Radiation dosage of UV-B per irradiation was set at 54 mJ/cm^2 for the first week, 72 mJ/cm^2 for the second week, 90 mJ/cm^2 for the third week, and 108 mJ/cm^2 for the remaining weeks, as confirmed by a UV monitor. Each irradiation event was 10 minutes long.
POH-LA conjugate, linoleic acid, POH, and the additive combination of linoleic acid and POH were each suspended in glycerol:ethanol (90:10 vol/vol) to a final concentration of 10 nM with 50 μL and applied to each SKH-1 hairless mouse post UV-B exposure for treatment. The sunblock mouse was gently wiped on the exposure area with the sunblock towelette. […] In FIG. 23B, the mice were treated with the glycerol:ethanol vehicle only. In FIG. 23C, the mice were treated with POH. In FIG. 23D, the mice were treated with linoleic acid. In FIG. 23E, the mice were treated with an mixture of linoleic acid and POH. In FIG. 23F, the mice were treated with POH-LA conjugate. In FIG. 23G, the mice were treated with sunblock. The application of POH-LA conjugate to UV-B exposed tissue limits the amount of observable skin damage as compared to the untreated control (B) or the individual components of POH-LA conjugate either alone (POH—C and LA—D), in mixture (E), or with sunblock (G).
as §9, with “FIGS. 24A-D illustrates the” for “FIG. 23 illustrates the”, “UV lamp (VWR, Radnor, PA).” for “UV lamp (VWR. Radnor, PA).”, “second week, and 90 mJ/cm^2” for “second week, 90 mJ/cm^2”, “third week, as confirmed” for “third week, and 108 mJ/cm^2 for the remaining weeks, as confirmed”, “UV monitor.” for “UV monitor. Each irradiation event was 10 minutes long.”
POH-LA conjugate (FIG. 24A), linoleic acid (FIG. 24B), POH (FIG. 24C), and the additive combination of linoleic acid and POH (FIG. 24D) were each suspended in glycerol:ethanol (90:10 vol/vol) to a final concentration of 10 nM with 50 μL applied to each mouse post UV-B exposure for treatment. The application of POH-LA conjugate to UV-B exposed tissue limits the amount of observable skin damage as compared the individual components of POH-LA conjugate either alone or in mixture.
as §9, with “This example” for “FIG. 23”, “nm)” for “nm). The irradiation”, “(VWR,” for “(VWR.”, “monitor.” for “monitor. Each irradiation event was 10 minutes long.”
POH-LA conjugate, linoleic acid, POH, and the additive combination of linoleic acid and POH were each suspended in glycerol:ethanol (90:10 vol/vol) to a final concentration of 10 nM with 50 μL applied to each mouse post UV-B exposure for treatment. […]

COc1ccc(C2CNC(=O)C2)cc1OC1CCCC1 (stereo not shown) [rolipram, reference compound]
IC50 [1]: ~1000 µM
plateau cytotoxicity [2]: 60%
IC50 ([2]; Homo sapiens, U-251, 48 h): 170 µM
IC50 [3]: > 1000 µM
IC50 [4]: > 100 µM

Cn1nnc2c(C(N)=O)ncn2c1=O [TMZ, temozolomide]
cytotoxicity (MTT) [5]: did not induce significant cytotoxicity
cytotoxicity (MTT) [6]: did not induce significant cytotoxicity
cytotoxicity (colony forming assay) [7]: minimal cytotoxicity
cytotoxicity (colony forming assay) [8]: demonstrated cytotoxicity
cytotoxicity / kill rates (MTT) [9]: minimal cytotoxicity

C=C(C)C1CC=C(COC(=O)N(C(=O)OCC2=CCC(C(=C)C)CC2)S(=O)(=O)c2ccc(-n3nc(C(F)(F)F)cc3-c3cc(C)ccc3C)cc2)CC1 (stereo not shown) [POH-DMC]
cytotoxicity / kill rates (MTT) [9]: much better cytotoxicity than DMC alone

CCCCC/C=C\C/C=C\CCCCCCCC(=O)O [linoleic acid]
IL-6 levels [10]: 18.3 ± 3.4 pg/mL
TNF-α levels [11]: 126.9 ± 14.6 pg/mL
IL-1β serum levels increase [12]: 8.3 ± 2.1 pg/mL
observable skin damage ([13]; 3 weeks of UV-B exposure and treatment): displayed damage
observable skin damage ([13]; 5 weeks of UV-B exposure and treatment): displayed damage
